Measured values reported in paper PMC11079024, “Identification of a family of species-selective complex I inhibitors as potential anthelmintics” (Nature Communications, 2024).
“And” between values parts separate entries of the source, which are not always exact repeats. Equal values may be shown once. Read-outs that look alike come from different tables or passages of the source.

Experiments:
[1] = target: C. elegans (N2) complex I (NADH:ubiquinone oxidoreductase) (Caenorhabditis elegans, UniProt P24887+Q93873+Q94360); assay: biochemical; type: biochemical
Sequence of C. elegans (N2) complex I (NADH:ubiquinone oxidoreductase) (Q94360 17-199): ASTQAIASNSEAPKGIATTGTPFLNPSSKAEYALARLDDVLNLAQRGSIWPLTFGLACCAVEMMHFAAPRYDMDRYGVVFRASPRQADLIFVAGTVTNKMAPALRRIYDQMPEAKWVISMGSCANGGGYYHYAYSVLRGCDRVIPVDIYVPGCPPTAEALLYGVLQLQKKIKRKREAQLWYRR
Sequence of C. elegans (N2) complex I (NADH:ubiquinone oxidoreductase) (P24887 whole entry): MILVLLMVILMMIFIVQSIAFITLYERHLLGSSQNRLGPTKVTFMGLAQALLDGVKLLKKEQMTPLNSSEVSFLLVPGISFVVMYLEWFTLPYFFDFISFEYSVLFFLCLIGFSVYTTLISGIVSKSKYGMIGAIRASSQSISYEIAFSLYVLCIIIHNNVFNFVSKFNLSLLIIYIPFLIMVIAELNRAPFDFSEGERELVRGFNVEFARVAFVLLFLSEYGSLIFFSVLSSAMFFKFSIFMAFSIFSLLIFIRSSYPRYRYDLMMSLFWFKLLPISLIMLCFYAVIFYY
Sequence of C. elegans (N2) complex I (NADH:ubiquinone oxidoreductase) (Q93873 31-482): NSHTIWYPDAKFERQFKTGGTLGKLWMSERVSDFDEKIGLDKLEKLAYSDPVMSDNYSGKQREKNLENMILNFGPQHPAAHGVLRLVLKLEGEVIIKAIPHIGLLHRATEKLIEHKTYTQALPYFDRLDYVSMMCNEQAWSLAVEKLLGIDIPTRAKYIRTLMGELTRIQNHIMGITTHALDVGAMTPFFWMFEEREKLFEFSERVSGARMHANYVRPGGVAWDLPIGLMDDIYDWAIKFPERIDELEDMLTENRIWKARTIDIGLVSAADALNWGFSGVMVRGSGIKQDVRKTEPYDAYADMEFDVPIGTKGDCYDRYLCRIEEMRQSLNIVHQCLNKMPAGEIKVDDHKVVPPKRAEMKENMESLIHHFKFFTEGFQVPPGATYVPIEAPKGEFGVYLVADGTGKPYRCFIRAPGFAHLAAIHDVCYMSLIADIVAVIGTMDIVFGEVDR
Procedure, shortened: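 Compounds were tested against freeze-thawed isolated mitochondria (0.2 mg/mL protein). NADH:decylubiquinone activity was monitored via DCIP absorbance at 600 nm, and the initial linear slope was normalised to solvent controls.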

[2] = target: C. elegans complex II (succinate dehydrogenase) (Caenorhabditis elegans, UniProt O62215+P41956+Q09545); assay: In vitro complex II activity assay, C. elegans mitochondria; type: biochemical
Sequence of C. elegans complex II (succinate dehydrogenase) (P41956 30-182): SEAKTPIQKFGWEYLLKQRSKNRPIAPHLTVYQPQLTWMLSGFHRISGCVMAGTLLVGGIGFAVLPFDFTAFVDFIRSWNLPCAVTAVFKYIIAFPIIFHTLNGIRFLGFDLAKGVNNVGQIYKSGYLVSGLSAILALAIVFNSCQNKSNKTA
Sequence of C. elegans complex II (succinate dehydrogenase) (Q09545 22-298): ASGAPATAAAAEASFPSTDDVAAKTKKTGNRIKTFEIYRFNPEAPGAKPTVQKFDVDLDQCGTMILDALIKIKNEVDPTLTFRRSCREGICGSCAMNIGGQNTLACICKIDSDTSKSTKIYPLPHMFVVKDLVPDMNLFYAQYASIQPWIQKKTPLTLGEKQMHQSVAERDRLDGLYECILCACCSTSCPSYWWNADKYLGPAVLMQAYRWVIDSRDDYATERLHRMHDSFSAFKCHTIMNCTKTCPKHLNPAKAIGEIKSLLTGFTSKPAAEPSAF
Sequence of C. elegans complex II (succinate dehydrogenase) (Q09508 32-646, further chain): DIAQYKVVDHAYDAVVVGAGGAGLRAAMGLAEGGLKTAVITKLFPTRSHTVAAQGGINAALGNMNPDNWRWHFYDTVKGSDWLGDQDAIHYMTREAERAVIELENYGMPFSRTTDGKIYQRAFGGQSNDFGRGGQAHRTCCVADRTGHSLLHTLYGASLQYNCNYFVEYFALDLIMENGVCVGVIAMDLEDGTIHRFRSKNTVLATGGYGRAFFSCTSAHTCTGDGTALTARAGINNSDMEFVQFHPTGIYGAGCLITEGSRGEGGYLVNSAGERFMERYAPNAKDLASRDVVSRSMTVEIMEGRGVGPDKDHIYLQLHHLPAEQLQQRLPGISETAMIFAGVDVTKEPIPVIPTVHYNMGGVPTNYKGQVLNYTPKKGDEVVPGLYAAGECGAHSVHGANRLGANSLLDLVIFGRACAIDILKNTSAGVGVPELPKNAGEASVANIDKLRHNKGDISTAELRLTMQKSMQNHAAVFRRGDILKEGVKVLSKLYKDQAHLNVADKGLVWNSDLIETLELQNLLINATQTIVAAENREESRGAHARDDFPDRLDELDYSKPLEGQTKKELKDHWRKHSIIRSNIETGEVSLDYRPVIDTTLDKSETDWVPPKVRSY
Sequence of C. elegans complex II (succinate dehydrogenase) (O62215 31-145): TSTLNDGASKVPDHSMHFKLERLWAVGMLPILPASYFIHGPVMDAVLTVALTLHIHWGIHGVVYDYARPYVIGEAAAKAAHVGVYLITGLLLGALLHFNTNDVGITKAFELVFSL
Procedure: (§1) Mitochondria were isolated from the following free-living nematode strains: C. elegans—N2, CB3474, ECA882, ECA917, ECA1075, ECA1080; C. briggsae—AF16; P. pacificus—PS312; and P. hermaphrodita—B178. With the exception of the P. hermaphrodita strain B178, adult worms of each strain were grown in bulk through liquid culture to obtain mitochondria in sufficient quantities. Due to poor growth in liquid media, mixed stage populations of P. hermaphrodita were washed off and collected from NGM plates seeded with OP50. The isolation of mitochondria from all free-living nematode strains followed the protocol previously outlined in Burns et al.[24]. In brief, a 1 L saturated culture of E. coli HB101 was concentrated 20-fold in 50 mL complete S-medium. ~500,000 L1 worms synchronized from an embryo preparation performed the day prior were added to the S-media/HB101 suspension and grown to adulthood over the course of 3.5 days at 20 °C with shaking at 165 rpm. Following growth, worms were collected in 10 ×15 mL conical tubes and washed 7 times in M9 buffer. Worm suspensions were then combined into a single 15 mL conical tube and diluted to a final volume of 15 mL with M9 buffer. 1 mL aliquots of worm suspension were then distributed to 15 × 1.5 mL screw-cap microcentrifuge tubes and were pelleted at 500 g for 1 min. Excess M9 was aspirated without disturbing the worm pellet. 600 μL ice-cold isolate buffer A (250 mM sucrose, 10 mM Tris (pH 7.5), 1 mM EDTA, 1 mM PMSF (freshly prepared)) and 300 μL cold glass beads were then added to each tube. Tubes were incubated on ice for 10 min, and the worms were then lysed by bead beating (6 x 30 s, with 1 min cooling intervals). Tubes containing worm lysate were centrifuged at 1,000 g for 10 min at 4 °C and the supernatant was transferred to 15 new microcentrifuge tubes on ice. The tubes were centrifuged a second time at 1,000 g for 10 min at 4 °C and the supernatant was once again transferred to 15 new microcentrifuge tubes on ice. These tubes were then centrifuged at 16,000 g for 10 min at 4 °C. The resulting mitochondrial pellet was washed twice by re-suspension in 300 μL of ice-cold isolate buffer B (250 mM sucrose, 10 mM Tris (pH 7.5), 1 mM EDTA). Following the final wash, isolation buffer was aspirated from each tube and the pellets were flash-frozen in ethanol/dry ice and stored at −80 °C until needed.
(§2) The enzymatic activities of individual ETC complexes (I-IV) were assessed spectrophotometrically in isolated mitochondria using a Varioskan LUX Multimode plate reader (ThermoFisher Scientific). Mitochondrial pellets previously isolated were thawed on ice and resuspended in ice-cold isolation buffer (250 mM sucrose, 10 mM Tris (pH 7.5), 1 mM EDTA). The BCA assay (Walker, 1994) was used to quantify the protein concentration of mitochondria suspensions; solutions were diluted to a concentration of 0.2 mg/mL for use in all assays. For the complex I assay, mitochondria pellets were freeze-thawed on ice three times to increase enzyme accessibility. […] 20 μL mitochondria suspension was then added/mixed with a pipette to initiate the reaction. Immediately following the addition of mitochondria, absorbance was measured (complex I and II: 600 nm; complex III and IV: 550 nm) in 30 s intervals over 15 min. Enzymatic activity was determined in each reaction by plotting absorbance versus time and calculating the slope of the curve during the initial linear phase of the reaction. […] Percent activity of each complex was calculated by dividing the enzyme-specific activity of each well by the enzyme-specific activity of the corresponding solvent controls.
Complex II (succinate dehydrogenase) activity was assessed using the DCIP-coupled method previously described in Burns et al.[24].
For preliminary screens of hit compounds, compounds were screened at 100 μM; data are the average of at least three biological replicates. The complex I and II activity assays were used for additional dose-response experiments.

[3] = tested on: C. elegans complex III (decylubiquinol-cytochrome C reductase); assay: In vitro complex III activity assay, C. elegans mitochondria; type: biochemical, Caenorhabditis elegans
Procedure: as §1, §2
Antimycin A-sensitive complex III (decylubiquinol-cytochrome C […]) activity was determined by measuring the reduction of cytochrome C (CytC) as optimized in Luo et al.[59]. Decylubiquinol for complex III assays was prepared fresh as described in Janssen and Boyle, 2019[60].

[4] = tested on: C. elegans complex IV (cytochrome C oxidase); assay: In vitro complex IV activity assay, C. elegans mitochondria; type: biochemical, Caenorhabditis elegans
Procedure: as §1, §2
Complex IV (cytochrome C oxidase) activity was determined by following the oxidation of CytC in the protocol outlined by Janssen and Boyle, 2019[60]. Reduced CytC was prepared fresh by adding 1 μL increments of 1 M dithiothreitol to a 1 mM solution of CytC and vortexing. A colour change from brown to orange/pink signals when CytC has been reduced.

C. elegans = C. elegans chemical screens of RIKEN NPD libraries at 50 μM (hit identification in KCN survival and development/viability assays); type: cell-based, Caenorhabditis elegans; conditions: screened at 50 μM in triplicate, KCN = KCN survival assay, Dev. & Viability = development/viability assay
L1 wild-type C. elegans = conditions: for LC50: caenorhabditis elegans; for C. elegans L1 relative motility, 3-hour post 200 µM KCN dilution: individual replicate (Rep)
HEK293 cells = conditions: for HEK293 viability: individual replicate (Rep); for CC50: read-out: HEK293 Cell Viability Assay LC50, 2 days exposure
[5] = 100 µM compound, relative to solvent control, mean (SEM)
[6] = 100 μM of NPD compound, C. elegans mitochondria, individual biological replicates
[7] = 100 μM of NPD compound, C. elegans mitochondria, mean of four biological replicates

COc1ccc(-c2cc(=Nc3ccccc3N)c3ccccc3o2)cc1 [NPD6380]
% Activity Complex I [1, 5]: 86.43 (2.27) %
Percent in vitro activity, Complex I (single replicate Rep1-Rep4) [1, 6]: 77.779% and 82.402% and 98.876% and 86.642%
Percent in vitro activity, Complex I (Mean) [1, 7]: 86.425%
% Activity Complex II [2, 5]: 102.27 (2.46) %
Percent in vitro activity, Complex II (single replicate Rep1-Rep4) [2, 6]: 113.834% and 92.410% and 96.068% and 106.772%
Percent in vitro activity, Complex II (Mean) [2, 7]: 102.271%
% Activity Complex III [3, 5]: 107.06 (1.36) %
Percent in vitro activity, Complex III (single replicate Rep1-Rep4) [3, 6]: 109.305% and 109.700% and 110.292% and 98.948%
Percent in vitro activity, Complex III (Mean) [3, 7]: 107.062%
% Activity Complex IV [4, 5]: 115.38 (4.42) %
Percent in vitro activity, Complex IV (single replicate Rep1-Rep4) [4, 6]: 108.559% and 111.425% and 100.551% and 140.996%
Percent in vitro activity, Complex IV (Mean) [4, 7]: 115.383%
Hit Type (C. elegans; hit = modified z-score < −3): KCN
LC50 (L1 wild-type C. elegans): 14.3 µM
C. elegans L1 relative motility, 3-hour post 200 µM KCN dilution (L1 wild-type C. elegans; dose 0.4 µM): 1.243 and 1.189
C. elegans L1 relative motility, 3-hour post 200 µM KCN dilution (L1 wild-type C. elegans; dose 0.8 µM): 1.074 and 1.086
C. elegans L1 relative motility, 3-hour post 200 µM KCN dilution (L1 wild-type C. elegans; dose 3.1 µM): 1.020 and 1.053
C. elegans L1 relative motility, 3-hour post 200 µM KCN dilution (L1 wild-type C. elegans; dose 6.3 µM): 1.040 and 1.101
C. elegans L1 relative motility, 3-hour post 200 µM KCN dilution (L1 wild-type C. elegans; dose 12.5 µM): 0.696 and 0.688
C. elegans L1 relative motility, 3-hour post 200 µM KCN dilution (L1 wild-type C. elegans; dose 25 µM): 0.136 and 0.141
C. elegans L1 relative motility, 3-hour post 200 µM KCN dilution (L1 wild-type C. elegans; dose 50 µM): 0.030 and 0.035
HEK293 viability (HEK293 cells; dose 0.8 µM): 0.998
HEK293 viability (HEK293 cells; dose 3.1 µM): 0.945 and 0.951
HEK293 viability (HEK293 cells; dose 6.3 µM): 0.687 and 0.797
HEK293 viability (HEK293 cells; dose 12.5 µM): 0.542 and 0.584
HEK293 viability (HEK293 cells; dose 25 µM): 0.441 and 0.466
HEK293 viability (HEK293 cells; dose 50 µM): 0.431 and 0.445
CC50 (HEK293 cells): 29.2 µM

CCCC[C@@]1(OC(=O)CCC(=O)O)CC[C@]2(CC[C@H](C)[C@@H](C/C=C(C)/C=C/[C@H](O)[C@@H](C)/C=C/C(=O)O)O2)O[C@H]1/C=C/C(C)=C/C(=O)O [Reveromycin A, reference compound]
Hit Type (C. elegans; […]): Dev. & Viability

Cc1nc2ccc(Br)cc2c2c1CC(C)O2 (racemic) [NP974]
Hit Type (C. elegans; hit = modified z-score < −3): KCN/Dev. & Viability
LC50 (L1 wild-type C. elegans): 19 µM

COC(=O)Nc1nc2ccc(C(=O)c3cccs3)cc2[nH]1 [Nocodazole, reference compound]
Hit Type (C. elegans; […]): Dev. & Viability

CN[C@@H]1C[C@H]2O[C@@](C)([C@@H]1OC)n1c3ccccc3c3c4c(c5c6ccccc6n2c5c31)C(=O)NC4 [Staurosporine, reference compound]
Hit Type (C. elegans; […]): Dev. & Viability

CC1(C#CCN2CCCCCC2)CCC2C(O1)c1ccccc1OC2(C)C (stereo not drawn) [NPD5219]
Hit Type (C. elegans; hit = modified z-score < −3): Dev. & Viability
CC50 (HEK293 cells): 14.8 µM

COc1ccccc1/C=C/C(=O)c1cc(C)ccc1O [NPD8582]
Hit Type (C. elegans; hit = modified z-score < −3): KCN
LC50 (L1 wild-type C. elegans): 14.7 µM

Cc1nc2ccc(Br)cc2c2c1CC(C(C)(Cl)Br)O2 (racemic) [NPD10211]
Hit Type (C. elegans; hit = modified z-score < −3): KCN/Dev. & Viability
LC50 (L1 wild-type C. elegans): 14.5 µM
